“And” between values parts separate entries of the source, which are not always exact repeats. Equal entries are not always repeated. “Also recorded” adds a separate entry of the source.
What was measured:
[1] = tested on: viable "live" ex vivo neonatal mouse spinal cords; assay: Real-time SG diffusion and SG-DEXSY measurements on viable spinal cords (Example 3); assay type: cell-based
Procedure: MR measurements were performed on viable “live” ex vivo neonatal mouse spinal cords at 13.79 MHz with a low-field single-sided magnet (PM-10 NMR MOUSE, Magritek) (Eidmann, et al., Journal of Magnetic Resonance, Series A, 122(1): 104-109 (1996)) and custom-made RF probe and solenoid coil (see FIG. 29). Diffusion was encoded on sub-micron length scales and sub-millisecond timescales with spin echoes in the presence of a g=15.3 T/m static gradient (SG) (Williamson, et al., Proceedings of the 28th annual International Society of Magnetic Resonance in Medicine (ISMRM) (2020)). SG diffusion measurements (Williamson, et al., Elife, 8: p. e51101 (2019)) and SG diffusion exchange spectroscopy (DEXY)-based exchange rate and spin-lattice relaxation rate measurements (as in Williamson, et al., Journal of Magnetic Resonance, 317: 106782 (2020)), with b1+b2=4.5 ms/μm^2) were repeatedly acquired (11 minutes per set) to observe real-time changes. During measurements, samples were maintained in a constant circulation of artificial cerebrospinal fluid (ACF) and gas and at 25° C.

organotypic CNS = settings: after blocking Na+/K+ pump with ouabain; cited from earlier work
[2] = tested on: ex vivo neonatal mouse spinal cords; assay: Multiexponential analysis of DEXSY exchange time distribution P(τk) (Example 5); assay type: cell-based; settings: 100 μM ouabain, 25° C., live tissue
Procedure: The probability distribution functions of the exchange time were measured, P(τk)=P(1/k) by applying multi exponential analysis using numerical inverse Laplace transforms (ILTs) to data in which the effect of exchange has been isolated. Using a low-field, static gradient system, P(τk) data were acquired from ex vivo neonatal mouse spinal cords in three conditions: fixed, live, and live whilst treated with ouabain, a sodium-potassium pump inhibitor.
The static gradient DEXSY (SG-DEXSY) pulse sequence was implemented on a PM-10 NMR MOUSE single-sided magnet at ω0=13.79 MHz, B0=0.3239 T, g=15.3 T/m with a home-built solenoid RF coil and test chamber. 90°/180° RF pulse lengths=2/2 μs, pulse powers=−22/−16 dB, TR=2 s, 8000 echo CPMG train with TE=25 μs, 8 points per echo, and 0.5 μs dwell time.
Live (i.e., viable) and fixed ex vivo neonatal (postnatal day 1-4) mouse spinal cords were studied. Spinal cords were bathed in artificial cerebrospinal fluid at 95% O2/5% CO2 and 25° C. For the ouabain treatment condition, ouabain was added at a saturating concentration of 100 μM.
Data were acquired at bs=4.5 ms/μm^2 over 69 values of tm=0.2-1000 ms. A biexponential fit to the log-ratio of signals was first performed to yield robust estimates of the intercept C0 and limit f∞/C1 (FIGS. 35A-35D). […]

[3] = tested on: live ex vivo neonatal mouse spinal cords; assay: Static-gradient spin echo diffusion NMR (ADCy, restricted fraction f) on live spinal cords (Example 1); assay type: cell-based
Procedure: (§1) All experiments were performed on Swiss Webster wild type (Taconic Biosciences, Rensselaer, NY, USA) mice between postnatal day 1 to 4. The mouse spinal cords were isolated and placed in a dissecting chamber perfused with cold low-calcium high magnesium artificial cerebrospinal fluid (aCSF, concentrations in mM: 128.35 NaCl, 4 KCl, 0.5 CaCl2·2H2O, 6 MgSO4·7H2O, 0.58 NaH2PO4·H2O, 21 NaHCO3, 30 D-glucose) bubbled with 95% O2 and 5% CO2). Live spinal cords were transported in low-calcium, high-magnesium aCSF to the NMR experimental apparatus. Fixed spinal cords were kept overnight in 4% paraformaldehyde at 4° C. and then stored in phosphate buffered saline (PBS) at 4° C., and washed with aCSF three times over the course of two days to remove any residual paraformaldehyde prior to experiments. Experiments on fixed and live spinal cords were performed using normal aCSF (same concentrations as the low-calcium high-magnesium solution except for 1.5 mM CaCl2·2H2O and 1 mM MgSO4·7H2O).
The same experimental conditions were used for live and fixed spinal cords. […]
Diffusion experiments were performed using a standard sequence involving a spin echo (SE) for diffusion encoding followed by a CPMG signal acquisition (Rata, et al., Journal of Magnetic Resonance, 180(2): 229-235 (2006). τ (defined as half the SE echo time) was varied linearly from 0.05 to 3.3 ms over 22 steps with 4 scans per τ. This corresponds to b-values ranging from 0.001 to 400 ms/μm^2 where b=2/3γ^2g^2τ^3 (Carr, et al., Physical Review, 94(3): 630 (954), Hahn, Physical Review, 80(4): 580 (1950)). Points two through four (τ=0.2048 to 0.5143 ms, b=0.096 to 1.5 ms/μm^2) of diffusion data were fit with I(b)=I0 exp(−b ADC) to estimate the Apparent Diffusion Coefficient and I0. For measurements on spinal cords, the term ADCy is used, acknowledging that diffusion may be anisotropic but was measured only in the y direction, perpendicular to the cord. […]
(§2) to estimate the restriction radius r and the restricted fraction f. Each estimate incorporated k measured from the rapid exchange experiment during the same set. […]

[4] = tested on: live ex vivo neonatal mouse spinal cords; assay: Real-time DEXSY NMR water exchange rate and R1 DW on live spinal cords (Example 1); assay type: cell-based; settings: 100 μM ouabain
Procedure: as §1
A PM 10 NMR MOUSE single-sided permanent magnet (Eidmann, et al., Journal of Magnetic Resonance, 122: 104-109 (1996)) (Magritek, Aachen Germany) and a Kea 2 spectrometer (Magritek, Wellington, New Zealand) were used to perform NMR experiments at B0=0.3239 T (proton ω0=13.79 MHz) and […]. A test chamber and RF probe were fabricated to maximize SNR and maintain live spinal cord viability.
Sample temperature was controlled by heat exchange with one of two circulating water baths (Accel 250 LC, Thermo Scientific, USA, and WCR-P6 Precision Regulated Bath Circulator, Daihan Scientific, Lennox Laboratory supplies, Ireland). […] Sample temperature was monitored by a fiber optic sensor (PicoM, Opsens Solutions Inc., Quebec, Canada). […]
Experimental protocols involved looping through sets of diffusion experiments and rapid DEXSY experiments to acquire repetitions of each. Noise and RF probe tuning were monitored at the beginning of each loop. […]
as §2

Na+/K+-ATPase = settings: cited from earlier work
fixed spinal cords = assay: Osmolarity perturbation with sucrose, diffusion and DEXSY NMR on fixed spinal cords; set-up: species or system mouse
Procedure: as §1
Diffusion experiments were performed using a standard sequence involving a spin echo (SE) for diffusion encoding followed by a CPMG signal acquisition (Rata, et al., Journal of Magnetic Resonance, 180(2): 229-235 (2006). τ (defined as half the SE echo time) was varied linearly from 0.05 to 3.3 ms over 22 steps with 4 scans per τ. This corresponds to b-values ranging from 0.001 to 400 ms/μm^2 where b=2/3γ^2g^2τ^3 (Carr, et al., Physical Review, 94(3): 630 (954), Hahn, Physical Review, 80(4): 580 (1950)). Points two through four (τ=0.2048 to 0.5143 ms, b=0.096 to 1.5 ms/μm^2) of diffusion data were fit with I(b)=I0 exp(−b ADC) to estimate the Apparent Diffusion Coefficient and I0. For measurements on spinal cords, the term ADCy is used, acknowledging that diffusion may be anisotropic but was measured only in the y direction, perpendicular to the cord.
as §2

live spinal cords = assay: Osmolarity perturbation with sucrose, diffusion and DEXSY NMR on live spinal cords; assay type: cell-based, mouse; settings: +300 mM sucrose, live samples
Procedure: as §1, with “MgSO4·7H2O). […]” for “MgSO4·7H2O).”
as §2

[5] = normal vs +300 mM sucrose, n=2 fixed samples

Cc1onc(O)c1CC(N)C(=O)O (stereo not drawn) [AMPA, α-amino-3-hydroxy-5-methyl-4-isoxazolepropionic acid]
effect on exchange rate ([1]; 5 μM and 10 μM AMPA, n=5): decreases; also recorded: causes exchange rate to decrease | reversibility of the effect on washout ([1]; AMPA washed out): recovers upon washout; also recorded: reversible | effect of a second dose on exchange rate ([1]; second dose of AMPA): less of an effect

C[C@@H]1O[C@@H](O[C@H]2C[C@@H](O)[C@]3(CO)[C@H]4[C@H](O)C[C@]5(C)[C@@H](C6=CC(=O)OC6)CC[C@]5(O)[C@@H]4CC[C@]3(O)C2)[C@H](O)[C@H](O)[C@H]1O [ouabain]
decrease of steady-state transmembrane water exchange rate (organotypic CNS): 50% | faster peak of exchange time distribution P(τk) [2]: reduced | decrease of apparent diffusion coefficient ([3]; 100 μM ouabain, n=3): 9±1% | increase of restricted water fraction f ([3]; 100 μM ouabain, n=3): 22±6% | ADCy ([3]; ouabain-treated spinal cords, mean±SD, n=3, 25° C.): 0.954±0.045 μm^2/ms | time until ouabain took effect after treatment [4]: roughly 10 minutes | exchange rate k after ouabain addition ([4]; 25° C., n=3, mean (±SD), normal k=140 s^−1): 36 s⁻¹ and 36 ± 11 s⁻¹ | decrease of diffusion weighted spin-lattice relaxation rate R1 DW ([4]; n=3): 8±3% | reduction of Na+/K+-ATPase activity (Na+/K+-ATPase; 100 μM ouabain): 65% | further increase of the effect on Na+/K+-ATPase activity (Na+/K+-ATPase; doses higher than 100 μM ouabain): 6% | exchange rate after completely blocking Na+/K+ pump ([1]; 100 μM ouabain): 50 s⁻¹ | mean apparent diffusion coefficient ([1]; 100 μM ouabain): increases | restricted volume ([1]; 100 μM ouabain): increases | spin lattice relaxation rate ([1]; 100 μM ouabain): decreases | time until effect after ouabain hits the sample ([1]; 100 μM ouabain): roughly 10 minutes | timescale from no effect to full effect ([1]; 100 μM ouabain): roughly 2 minutes | decrease in water exchange rate ([1]; 100 μM ouabain, n=3): 67% | increase in relative cell volume ([1]; 100 μM ouabain, n=3): 27% | dose dependence of effect on exchange rate ([1]; 1-10 μM vs 100 μM ouabain): dose-independent effect; also recorded: all-or-none fashion | exchange rate after partially blocking Na+/K+ pump ([1]; doses as low as 1 μM ouabain, after a delay): 50 s⁻¹ | normalized restricted volume ([1]; low (1-10 μM) doses of ouabain): not affected | time until effect after hitting the sample ([1]; low (1-10 μM) doses of ouabain, n=5): > 10 min

OC[C@H]1O[C@@](CO)(O[C@H]2O[C@H](CO)[C@@H](O)[C@H](O)[C@H]2O)[C@@H](O)[C@@H]1O [sucrose]
change of ADCy (fixed spinal cords; +300 mM sucrose, fixed samples): increases negligibly | change in exchange rate k (fixed spinal cords; [5]): no change | change in restricted fraction (fixed spinal cords; [5]): insignificant | change of ADCy (live spinal cords): increases ADCy significantly | exchange rate recovered to, in ouabain-treated state ([1]; 100 mM sucrose added in ouabain-treated state (5 μM ouabain, FIG. 21), from 50 s^−1): 150 s⁻¹ | effect on exchange rate in normal conditions ([1]; 100 mM sucrose, normal aCSF): small effect

From patent US20250044246A1, “NUCLEAR MAGNETIC RESONANCE METHODS OF DETERMINING HOMEOSTATIC PERTURBATIONS” (The United States of America, as represented by the …, priority 2021, published 2025)
